Tests used:
Experiment in all cases: Screening of fungi for enzyme activity with 4-methylumbelliferone-labelled substrates
Format in all cases: cell-based
[1] = system: Rhizomucor pusillus (AAS 300); conditions: substrate 10 μM, 25° C., pH 5; for Enzyme activity: amount of released 4-methylumbelliferone: mineral medium; for Enzyme activity: amount of released 4-methylumbelliferone during 5 hours of incubation: vegetable juice medium
[2] = system: Penicillium commune (IBT 13713); conditions: substrate 10 μM, 25° C., pH 5; for Enzyme activity: amount of released 4-methylumbelliferone: mineral medium; for Enzyme activity: amount of released 4-methylumbelliferone during 5 hours of incubation: vegetable juice medium
[3] = system: Ascobolus crenulatus (AAS 1); conditions: substrate 10 μM, 25° C., pH 5; for Enzyme activity: amount of released 4-methylumbelliferone: mineral medium; for Enzyme activity: amount of released 4-methylumbelliferone during 5 hours of incubation: vegetable juice medium
[4] = system: Sodaria fimicola (AAS 17); conditions: substrate 10 μM, 25° C., pH 5; for Enzyme activity: amount of released 4-methylumbelliferone: mineral medium; for Enzyme activity: amount of released 4-methylumbelliferone during 5 hours of incubation: vegetable juice medium
Eurotium sp. (AAS 36) = conditions: substrate 10 μM, 25° C., pH 5; for Enzyme activity: amount of released 4-methylumbelliferone: mineral medium; for Enzyme activity: amount of released 4-methylumbelliferone during 5 hours of incubation: vegetable juice medium
[5] = system: Aureobasidium pullulans (QM 3092); conditions: substrate 10 μM, 25° C., pH 5; for Enzyme activity: amount of released 4-methylumbelliferone during 5 hours of incubation: Aureobasidium pulluians (QM 3092), vegetable juice medium; for Enzyme activity: amount of released 4-methylumbelliferone: Aureobasidium pullulans (QM 3092), mineral medium
[6] = system: Aspergillus versicolor (IBT 13738); conditions: substrate 10 μM, 25° C., pH 5; for Enzyme activity: amount of released 4-methylumbelliferone: mineral medium; for Enzyme activity: amount of released 4-methylumbelliferone during 5 hours of incubation: vegetable juice medium
[7] = system: Paecilomyces farinosus (AGM 5); conditions: substrate 10 μM, 25° C., pH 5; for Enzyme activity: amount of released 4-methylumbelliferone: mineral medium; for Enzyme activity: amount of released 4-methylumbelliferone during 5 hours of incubation: vegetable juice medium
[8] = system: Aspergillus oryzae (AGM 11); conditions: substrate 10 μM, 25° C., pH 5; for Enzyme activity: amount of released 4-methylumbelliferone: mineral medium; for Enzyme activity: amount of released 4-methylumbelliferone during 5 hours of incubation: vegetable juice medium
[9] = system: Trametes versicolor (AGM 24); conditions: substrate 10 μM, 25° C., pH 5; for Enzyme activity: amount of released 4-methylumbelliferone: mineral medium; for Enzyme activity: amount of released 4-methylumbelliferone during 5 hours of incubation: vegetable juice medium
[10] = system: Cladosporium herbarum (AGM 8); conditions: substrate 10 μM, 25° C., pH 5; for Enzyme activity: amount of released 4-methylumbelliferone: mineral medium; for Enzyme activity: amount of released 4-methylumbelliferone during 5 hours of incubation: vegetable juice medium
[11] = system: Penicillium solitum (IBT 13771); conditions: substrate 10 μM, 25° C., pH 5; for Enzyme activity: amount of released 4-methylumbelliferone: mineral medium; for Enzyme activity: amount of released 4-methylumbelliferone during 5 hours of incubation: vegetable juice medium
[12] = system: Schizophyllum commune (AGM 25); conditions: substrate 10 μM, 25° C., pH 5; for Enzyme activity: amount of released 4-methylumbelliferone: mineral medium; for Enzyme activity: amount of released 4-methylumbelliferone during 5 hours of incubation: vegetable juice medium
[13] = system: Mucor racemosus (AAS 310); conditions: substrate 10 μM, 25° C., pH 5; for Enzyme activity: amount of released 4-methylumbelliferone: mineral medium; for Enzyme activity: amount of released 4-methylumbelliferone during 5 hours of incubation: vegetable juice medium

Cc1cc(=O)oc2cc(O[C@@H]3O[C@H](CO)[C@@H](O[C@@H]4O[C@H](CO)[C@H](O)[C@H](O)[C@H]4O)[C@H](O)[C@H]3O)ccc12 [substrate 8, 4-methylumbelliferyl β-D-lactoside]
Enzyme activity: amount of released 4-methylumbelliferone [1]: 0 µmol
Enzyme activity: amount of released 4-methylumbelliferone during 5 hours of incubation [1]: * (0.4 ≦ * < 1)
Enzyme activity: amount of released 4-methylumbelliferone [2]: 0 µmol
Enzyme activity: amount of released 4-methylumbelliferone during 5 hours of incubation [2]: 0 µmol
Enzyme activity: amount of released 4-methylumbelliferone [3]: 0 µmol
Enzyme activity: amount of released 4-methylumbelliferone during 5 hours of incubation [3]: 0 µmol
Enzyme activity: amount of released 4-methylumbelliferone [4]: 0 µmol
Enzyme activity: amount of released 4-methylumbelliferone during 5 hours of incubation [4]: ** (1 ≦ ** 2)
Enzyme activity: amount of released 4-methylumbelliferone (Eurotium sp. (AAS 36)): 0 µmol
Enzyme activity: amount of released 4-methylumbelliferone during 5 hours of incubation (Eurotium sp. (AAS 36)): 0 µmol
Enzyme activity: amount of released 4-methylumbelliferone during 5 hours of incubation [5]: 0 µmol
Enzyme activity: amount of released 4-methylumbelliferone [5]: 0 µmol
Enzyme activity: amount of released 4-methylumbelliferone [6]: 0 µmol
Enzyme activity: amount of released 4-methylumbelliferone during 5 hours of incubation [6]: 0 µmol
Enzyme activity: amount of released 4-methylumbelliferone [7]: 0 µmol
Enzyme activity: amount of released 4-methylumbelliferone during 5 hours of incubation [7]: 0 µmol
Enzyme activity: amount of released 4-methylumbelliferone [8]: 0 µmol
Enzyme activity: amount of released 4-methylumbelliferone during 5 hours of incubation [8]: * (0.4 ≦ * < 1)
Enzyme activity: amount of released 4-methylumbelliferone [9]: 0 µmol
Enzyme activity: amount of released 4-methylumbelliferone during 5 hours of incubation [9]: 0 µmol
Enzyme activity: amount of released 4-methylumbelliferone [10]: 0 µmol
Enzyme activity: amount of released 4-methylumbelliferone during 5 hours of incubation [10]: 0 µmol
Enzyme activity: amount of released 4-methylumbelliferone [11]: 0 µmol
Enzyme activity: amount of released 4-methylumbelliferone during 5 hours of incubation [11]: 0 µmol
Enzyme activity: amount of released 4-methylumbelliferone [12]: 0 µmol
Enzyme activity: amount of released 4-methylumbelliferone during 5 hours of incubation [12]: ** (1 ≦ ** 2)
Enzyme activity: amount of released 4-methylumbelliferone [13]: 0 µmol
Enzyme activity: amount of released 4-methylumbelliferone during 5 hours of incubation [13]: 0 µmol

Cc1cc(=O)oc2cc(O[C@@H]3OC[C@@H](O)[C@H](O)[C@H]3O)ccc12 [substrate 9, 4-methylumbelliferyl β-D-xyloside]
Enzyme activity: amount of released 4-methylumbelliferone [1]: 0 µmol
Enzyme activity: amount of released 4-methylumbelliferone during 5 hours of incubation [1]: *** (2 ≦ ***)
Enzyme activity: amount of released 4-methylumbelliferone [2]: 0 µmol
Enzyme activity: amount of released 4-methylumbelliferone during 5 hours of incubation [2]: * (0.4 ≦ * < 1)
Enzyme activity: amount of released 4-methylumbelliferone [3]: 0 µmol
Enzyme activity: amount of released 4-methylumbelliferone during 5 hours of incubation [3]: 0 µmol
Enzyme activity: amount of released 4-methylumbelliferone [4]: 0 µmol
Enzyme activity: amount of released 4-methylumbelliferone during 5 hours of incubation [4]: 0 µmol
Enzyme activity: amount of released 4-methylumbelliferone (Eurotium sp. (AAS 36)): 0 µmol
Enzyme activity: amount of released 4-methylumbelliferone during 5 hours of incubation (Eurotium sp. (AAS 36)): 0 µmol
Enzyme activity: amount of released 4-methylumbelliferone during 5 hours of incubation [5]: *** (2 ≦ ***)
Enzyme activity: amount of released 4-methylumbelliferone [5]: 0 µmol
Enzyme activity: amount of released 4-methylumbelliferone [6]: 0 µmol
Enzyme activity: amount of released 4-methylumbelliferone during 5 hours of incubation [6]: *** (2 ≦ ***)
Enzyme activity: amount of released 4-methylumbelliferone [7]: 0 µmol
Enzyme activity: amount of released 4-methylumbelliferone during 5 hours of incubation [7]: 0 µmol
Enzyme activity: amount of released 4-methylumbelliferone [8]: 0 µmol
Enzyme activity: amount of released 4-methylumbelliferone during 5 hours of incubation [8]: *** (2 ≦ ***)
Enzyme activity: amount of released 4-methylumbelliferone [9]: 0 µmol
Enzyme activity: amount of released 4-methylumbelliferone during 5 hours of incubation [9]: 0 µmol
Enzyme activity: amount of released 4-methylumbelliferone [10]: 0 µmol
Enzyme activity: amount of released 4-methylumbelliferone during 5 hours of incubation [10]: 0 µmol
Enzyme activity: amount of released 4-methylumbelliferone [11]: 0 µmol
Enzyme activity: amount of released 4-methylumbelliferone during 5 hours of incubation [11]: ** (1 ≦ ** 2)
Enzyme activity: amount of released 4-methylumbelliferone [12]: 0 µmol
Enzyme activity: amount of released 4-methylumbelliferone during 5 hours of incubation [12]: *** (2 ≦ ***)
Enzyme activity: amount of released 4-methylumbelliferone [13]: 0 µmol
Enzyme activity: amount of released 4-methylumbelliferone during 5 hours of incubation [13]: 0 µmol

Cc1cc(=O)oc2cc(O[C@H]3O[C@H](C)[C@H](O)[C@H](O)[C@H]3O)ccc12 [substrate 10, 4-methylumbelliferyl α-D-fucoside]
Enzyme activity: amount of released 4-methylumbelliferone [1]: 0 µmol
Enzyme activity: amount of released 4-methylumbelliferone during 5 hours of incubation [1]: *** (2 ≦ ***)
Enzyme activity: amount of released 4-methylumbelliferone [2]: 0 µmol
Enzyme activity: amount of released 4-methylumbelliferone during 5 hours of incubation [2]: 0 µmol
Enzyme activity: amount of released 4-methylumbelliferone [3]: 0 µmol
Enzyme activity: amount of released 4-methylumbelliferone during 5 hours of incubation [3]: 0 µmol
Enzyme activity: amount of released 4-methylumbelliferone [4]: 0 µmol
Enzyme activity: amount of released 4-methylumbelliferone during 5 hours of incubation [4]: 0 µmol
Enzyme activity: amount of released 4-methylumbelliferone (Eurotium sp. (AAS 36)): 0 µmol
Enzyme activity: amount of released 4-methylumbelliferone during 5 hours of incubation (Eurotium sp. (AAS 36)): 0 µmol
Enzyme activity: amount of released 4-methylumbelliferone during 5 hours of incubation [5]: 0 µmol
Enzyme activity: amount of released 4-methylumbelliferone [5]: * (0.4 ≦ * < 1)
Enzyme activity: amount of released 4-methylumbelliferone [6]: 0 µmol
Enzyme activity: amount of released 4-methylumbelliferone during 5 hours of incubation [6]: 0 µmol
Enzyme activity: amount of released 4-methylumbelliferone [7]: 0 µmol
Enzyme activity: amount of released 4-methylumbelliferone during 5 hours of incubation [7]: 0 µmol
Enzyme activity: amount of released 4-methylumbelliferone [8]: 0 µmol
Enzyme activity: amount of released 4-methylumbelliferone during 5 hours of incubation [8]: 0 µmol
Enzyme activity: amount of released 4-methylumbelliferone [9]: 0 µmol
Enzyme activity: amount of released 4-methylumbelliferone during 5 hours of incubation [9]: 0 µmol
Enzyme activity: amount of released 4-methylumbelliferone [10]: 0 µmol
Enzyme activity: amount of released 4-methylumbelliferone during 5 hours of incubation [10]: 0 µmol
Enzyme activity: amount of released 4-methylumbelliferone [11]: 0 µmol
Enzyme activity: amount of released 4-methylumbelliferone during 5 hours of incubation [11]: 0 µmol
Enzyme activity: amount of released 4-methylumbelliferone [12]: 0 µmol
Enzyme activity: amount of released 4-methylumbelliferone during 5 hours of incubation [12]: 0 µmol
Enzyme activity: amount of released 4-methylumbelliferone [13]: 0 µmol
Enzyme activity: amount of released 4-methylumbelliferone during 5 hours of incubation [13]: ** (1 ≦ ** 2)

Cc1cc(=O)oc2cc(O[C@@H]3O[C@H](C)[C@H](O)[C@H](O)[C@H]3O)ccc12 [substrate 11, 4-methylumbelliferyl β-D-fucoside]
Enzyme activity: amount of released 4-methylumbelliferone [1]: 0 µmol
Enzyme activity: amount of released 4-methylumbelliferone during 5 hours of incubation [1]: 0 µmol
Enzyme activity: amount of released 4-methylumbelliferone [2]: 0 µmol
Enzyme activity: amount of released 4-methylumbelliferone during 5 hours of incubation [2]: 0 µmol
Enzyme activity: amount of released 4-methylumbelliferone [3]: 0 µmol
Enzyme activity: amount of released 4-methylumbelliferone during 5 hours of incubation [3]: 0 µmol
Enzyme activity: amount of released 4-methylumbelliferone [4]: 0 µmol
Enzyme activity: amount of released 4-methylumbelliferone during 5 hours of incubation [4]: 0 µmol
Enzyme activity: amount of released 4-methylumbelliferone (Eurotium sp. (AAS 36)): 0 µmol
Enzyme activity: amount of released 4-methylumbelliferone during 5 hours of incubation (Eurotium sp. (AAS 36)): 0 µmol
Enzyme activity: amount of released 4-methylumbelliferone during 5 hours of incubation [5]: 0 µmol
Enzyme activity: amount of released 4-methylumbelliferone [5]: 0 µmol
Enzyme activity: amount of released 4-methylumbelliferone [6]: 0 µmol
Enzyme activity: amount of released 4-methylumbelliferone during 5 hours of incubation [6]: 0 µmol
Enzyme activity: amount of released 4-methylumbelliferone [7]: 0 µmol
Enzyme activity: amount of released 4-methylumbelliferone during 5 hours of incubation [7]: 0 µmol
Enzyme activity: amount of released 4-methylumbelliferone [8]: 0 µmol
Enzyme activity: amount of released 4-methylumbelliferone during 5 hours of incubation [8]: 0 µmol
Enzyme activity: amount of released 4-methylumbelliferone [9]: 0 µmol
Enzyme activity: amount of released 4-methylumbelliferone during 5 hours of incubation [9]: 0 µmol
Enzyme activity: amount of released 4-methylumbelliferone [10]: 0 µmol
Enzyme activity: amount of released 4-methylumbelliferone during 5 hours of incubation [10]: 0 µmol
Enzyme activity: amount of released 4-methylumbelliferone [11]: 0 µmol
Enzyme activity: amount of released 4-methylumbelliferone during 5 hours of incubation [11]: 0 µmol
Enzyme activity: amount of released 4-methylumbelliferone [12]: 0 µmol
Enzyme activity: amount of released 4-methylumbelliferone during 5 hours of incubation [12]: 0 µmol
Enzyme activity: amount of released 4-methylumbelliferone [13]: 0 µmol
Enzyme activity: amount of released 4-methylumbelliferone during 5 hours of incubation [13]: 0 µmol
